Measured values from ChEMBL document CHEMBL1154330, “Cucurbitane-type triterpenoids from the African plant Momordica balsamina” (J Nat Prod, 2009).

System: MCF7
Assay: Cytotoxicity against human MCF7 cells after 24 hrs by MTT assay
Format: functional, cell-based
Details: MCF7, 24 h

Structure (SMILES)	IC50 [µM]
CC(C)=C[C@H](O)C[C@@H](C)[C@H]1CC[C@@]2(C)[C@@H]3[C@@H](O)C=C4[C@@H](CC[C@H](O)[C@]4(C)CO)[C@]3(C)CC[C@]12C [BALSAMINOL A]	40
CO[C@H]1C=C2[C@@H](CC[C@H](O)[C@]2(C)CO)[C@]2(C)CC[C@]3(C)[C@@H]([C@H](C)C[C@@H](O)C=C(C)C)CC[C@@]3(C)[C@H]12 [BALSAMINOL B]	55.3
C[C@H](C/C=C/C(C)(C)O)[C@H]1CC[C@@]2(C)[C@@H]3[C@@H](O)C=C4[C@@H](CC[C@H](O)C4(C)C)[C@]3(C)C[C@@H](O)[C@]12C [CUCURBALSAMINOL A]	> 133
COc1cccc2c1C(=O)c1c(O)c3c(c(O)c1C2=O)C[C@@](O)(C(=O)CO)C[C@@H]3O[C@H]1C[C@H](N)[C@H](O)[C@H](C)O1 [DOXORUBICIN]	0.92
CC(C)=C[C@H](O)C[C@@H](C)[C@H]1CC[C@@]2(C)[C@@H]3C=C[C@@]45OC[C@]3(CC[C@]12C)[C@@H]4CC[C@H](O)C5(C)C [KARAVILAGENIN E]	30.7
C=C(C)[C@@H](O)[C@H](O)C[C@@H](C)[C@H]1CC[C@@]2(C)[C@@H]3[C@@H](O)C=C4[C@@H](CC[C@H](O)[C@]4(C)CO)[C@]3(C)CC[C@]12C [BALSAMINAPENTAOL A]	47
C[C@H](C/C=C/C(C)(C)O)[C@H]1CC[C@@]2(C)[C@@H]3[C@@H](O)C=C4[C@@H](CC[C@H](O)C4(C)C)[C@]3(C)CC[C@]12C	45.3
